Measured values reported in publication PMC11522901, “Translation of Deoxyribonucleic Acid into Synthetic Alpha Helical Peptides for Darwinian Evolution” (JACS Au, 2024).

Test system: GST-MDM2
Test: Binder/nonbinder affinity selection on GST-MDM2 beads with plate reader readout
Type: binding
Settings: 1:1 mixture, 500 nM each, 2 h at 4 °C with GST-MDM2 on GSH beads, four washes, elution 95 °C 5 min
Source text: We next investigated whether a templated ligation could yield peptides in an α-helical conformation. Since CD-based analyses would be difficult to interpret given the PNA, we opted to assess the helical nature of the peptide using binding to a target that requires this conformation. To this end, we used MDM2, an important regulator of the p53 tumor suppressor, which binds to an α-helix of p53[47] and has been a testing ground for stapling technologies[48]−[52] and screening technologies.[53]−[56] Additionally, several X-ray diffraction structures of the MDM2-peptide complex have been reported, supporting the importance of the helicity of the peptide.[51],[57],[58] […] Affinity selection of this mixture against GST-MDM2 immobilized on GSH beads was monitored by fluorescence quantification of the supernatant solution. […]
Ten μL of MagneGST glutathione particles (Promega #V8611) were blocked with 1 mg/mL BSA in PBS-CHAPS (10 mM phosphate buffer, 2.7 mM KCl, and 137 mM NaCl, pH 7.4, with 0.05% CHAPS) three times at room temperature for 5 min. […] The initial library, post-incubation library, washes, and elution were analyzed by a plate reader (SpectraMax i3x, in black 96-well microtiter plates (Thermo Scientific #267342)). […]

## PNA- Gly Ser Nle Cba Gln Ala Trp Tyr Glu Nle Phe Thr Leu Gly -PNA (head to tail) [binder]
  recovery in heat elution after affinity selection (fluorescence): strong recovery
